Results on 4 compounds are retold here after patent publication US20230036339A1, “BIOACTIVE IMPLANTS FOR DRUG DELIVERY” (The Queen's University of Belfast, priority 2019, published 2023).

Values joined by “and” are separate entries in the source; they are usually repeats but may differ in a detail not shown here. Equal entries are not always repeated. Marks after values point to notes of the source that are not given here.

The conditions of data set [1]: cited from earlier work.
The nature of data set [2]: Thermogravimetric analysis (TGA), thermal stability. Type of data set: physicochemical. Particulars: 10° C. min-1, reported at 5% weight loss. The method, then: TGA was utilised to determine thermal stability. Initially the starting materials (LIDO, MA, SA and GMS) were analysed to deduce the degradation temperature. The excipients were exposed to a heating ramp from room temperature (circa 20° C.) to 500° C., at 10° C. min-1.
LIDO and the relevant lipids were weighed and heated at 80° C. until molten. The samples were given 24 hours to cool/solidify before they were ground using a mortar and pestle for 2 min. The resultant systems were heated at 10° C. min-1 from room temperature to 350° C. All TGA experiments were conducted in triplicates, using Perkin-Elmer Aluminum Non-Hermetic DSC pans. Nitrogen (60 mL min-1) was used as the purge gas. The degradation temperature was reported at 5% weight loss. Analysis was performed using TA Universal analysis software.
Consequently, TGA is an essential technique used to inform the suitability of these materials and processing conditions of HME. The thermal degradation temperature was reported at 5% weight loss.

Data set [3] is described as follows: Assessment of drug loading capacity of EVA.
Data set [4] can be described thus: In vivo sheep study, pharmacokinetics of lidocaine and myristic acid. To be noted: FIG. 25.
Data set [5] can be described thus: Lidocaine and myristic acid remaining post-implantation. The data set is classed as in vivo. Particulars: individual sheep. The method, then:
The components of the outer coating were dissolved by sonication in dicholoromethane and the volume was then made up to 50 ml. Two ml of this solution was dried for 1 h at 50° C. and reconstituted in 100 ml methanol. The methanolic solutions were appropriately diluted in the mobile phase for assay by LCMS-MS.

As usually defined, the LogP is the decadic logarithm of the partition coefficient of the neutral form, usually between octanol and water. As for `CCCCCCCCCCCCCCCCCC(=O)OCC(O)CO` (centres unmarked) [Glycerol Monostearate], in data set [1], the LogP is 5.97. Further, in data set [2] (listed as GMS), the “Mean Degradation Temperature ± SD” value is 197.34 °C and 197.34 ± 8.23 °C.

Turning to `CCN(CC)CC(=O)Nc1c(C)cccc1C` [Lidocaine, 2-(diethyl-amino)-N-(2,6-dimethylpheny)-acetamide, reference compound], in data set [3] (in EVA 33%), the “Lidocaine concentration at which it crystalises out” value was greater than 10%. Besides, the “Lidocaine concentration over which it crystallises out” value in data set [3] (solvent cast EVA film or EVA polymer implant) was 9-10 % w/w. The “Mean Degradation Temperature ± SD” value in data set [2] (listed as LIDO) was 164.40 ± 1.30 °C; in data set [2] (listed as lidocaine), 164.40 °C.

`CCCCCCCCCCCCCC(=O)O` [Myristic Acid]: in data set [1], the LogP is 5.37. Moreover, the “Concentration in peritoneal fluid compared to plasma” value in data set [4] was “higher concentrations again observed in peritoneal fluid”. Moreover, the “Myristic acid % Remaining” value was 10.04 ± 1.82% and 16.91 ± 6.77% and 11.21 ± 0.98% in data set [5] (in co-extrudate after 3 days implantation, mean ± SD n=3); <4.00* % in data set [5] (in co-extrudate after 7 days implantation, listed as Myristic acid); “too low to quantify” in data set [5] (in co-extrudate after 7 days implantation, listed as myristic acid). For the same compound, in data set [2] (listed as MA), the “Mean Degradation Temperature ± SD” value was 177.55 °C and 177.55 ± 0.82 °C.

As to `CCCCCCCCCCCCCCCCCC(=O)O` [Stearic Acid], in data set [1], the lipophilicity (LogP) is 7.15. Besides, in data set [2] (listed as SA), the “Mean Degradation Temperature ± SD” value was 201.75 °C and 201.75 ± 4.12 °C.
